Experimental data as given in patent publication US20080188549A1, “Composition for Preventing and/or Treating Metabolic Syndrome and Insulin Resistance Syndrome” (Kaneka Corporation, priority 2005, published 2008).

Biological target: T1, PPARγ (Mus musculus, UniProt P37238)
T1 construct: GAL4 (yeast transcription factor, amino acids 1 to 147); expressed in transfected cells; host or cells: CV-1 cells (African green monkey kidney)
T1 sequence (P37238 174-475 isoform P37238-2): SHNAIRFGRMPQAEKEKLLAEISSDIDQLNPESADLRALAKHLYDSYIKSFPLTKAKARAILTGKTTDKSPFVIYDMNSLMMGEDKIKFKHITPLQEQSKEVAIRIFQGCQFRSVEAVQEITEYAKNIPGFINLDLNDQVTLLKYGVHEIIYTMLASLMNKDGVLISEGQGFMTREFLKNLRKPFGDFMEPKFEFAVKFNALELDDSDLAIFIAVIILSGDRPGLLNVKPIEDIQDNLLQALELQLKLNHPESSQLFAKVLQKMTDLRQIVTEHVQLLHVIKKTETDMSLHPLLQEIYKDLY
Assay: PPARγ ligand activity measurement (GAL4-mPPARγ chimera luciferase reporter assay in CV-1 cells)
Type: cell-based
Details: for Specific activity (PPARγ ligand activity relative to no-treatment control): CV-1 cells, 24 hours, n=4, 1.5 or above = having PPARγ ligand activity; for PPARγ ligand activity comparison with troglitazone: compared with troglitazone at 0.5 μM, compounds at the concentrations of Table 2
Procedure: CV-1 cells (male African green monkey kidney-derived cultured cells) were distributed into wells of a 96-well culture plate (6×10^3 cells/well) and cultured under conditions of 37° C. and 5% CO2 for 24 hours. The medium used was DMEM (Dulbecco's modified Eagle medium; GIBCO) containing 10% FBS (fetal bovine serum), 10 ml/L of penicillin-streptomycin solution (5,000 IU/ml and 5,000 μg/ml, respectively; GIBCO) and 37 mg/L of ascorbic acid (Wako Pure Chemical Industries). After rinsing with OPTI-MEM (GIBCO), the cells were transfected with pM-mPPARγ and 4×UASg-luc using Lipofectamine Plus (GIBCO). […] Each sample in the assay group was dissolved in dimethyl sulfoxide (DMSO), and DMSO was used in the no-treatment control group. The solution or DMSO was added to the medium at a level of 1/1000. After washing the cells with Ca- and Mg-containing phosphate buffered saline (PBS^+), LucLite (Packard) was added to each well, and the luciferase-due luminescence intensity was measured using Packard's TopCount microplate scintillation/luminescence counter. Using pM (plasmid deprived of the PPARγ ligand binding site gene) in lieu of pM-mPPARγ, measurements in a control group were carried out in the same manner as in the above assay group. For each sample, the ratio in mean luminescence intensity (n=4) between the assay group and control group (assay group/control group ratio) was calculated, and the specific activity relative to the no-treatment control group was regarded as the PPARγ ligand activity of the sample. When the specific activity was 1.5 or above, the sample was evaluated as having PPARγ ligand activity.

Specific activity (PPARγ ligand activity relative to no-treatment control) (10 μg/ml) | Specific activity (PPARγ ligand activity relative to no-treatment control) (20 μg/ml) | Compound | PPARγ ligand activity comparison with troglitazone
3.58 | – | COc1c(/C=C/C(=O)c2cc(O)c(O)c(CC=C(C)C)c2)ccc(O)c1O [Compound 1, 3,4,3′,4′-tetrahydroxy-2-methoxy-5′-γ,γ-dimethylallylchalcone] | stronger in PPARγ ligand activity as compared with troglitazone
3.62 | – | CC(C)=CCc1cc([C@@H]2CC(=O)c3ccc4c(c3O2)C=CC(C)(C)O4)ccc1O [Compound 2, shinflavanone] | stronger in PPARγ ligand activity as compared with troglitazone
– | 1.90 | COc1ccc(C2(O)COc3c(ccc4c3C=CC(C)(C)O4)C2=O)c(O)c1 (stereo not drawn) [Compound 3, 3,2′-dihydroxy-4′-methoxy-6″,6″-dimethylpyrano[2″,3″:7,8] isoflavanone] | stronger in PPARγ ligand activity as compared with troglitazone
